Data reported in US5597803A, “Bradykinin peptides with modifications at the N terminus” (Hoechst Aktiengesellschaft, priority 1992, dated 1997).

What was measured:
[1] = target: T1, isolated guinea pig pulmonary artery (Cavia porcellus, UniProt O70526); assay: bradykinin-antagonistic action on the isolated guinea pig pulmonary artery (inhibition of bradykinin-induced contraction); assay type: cell-based; conditions: contraction by 2×10^-7 mol/l bradykinin; peptides 5×10^-8 -1×10^-5 mol/l for 10 minutes; calculated from dose-effect plots; unit inferred
T1 sequence (O70526 1-372): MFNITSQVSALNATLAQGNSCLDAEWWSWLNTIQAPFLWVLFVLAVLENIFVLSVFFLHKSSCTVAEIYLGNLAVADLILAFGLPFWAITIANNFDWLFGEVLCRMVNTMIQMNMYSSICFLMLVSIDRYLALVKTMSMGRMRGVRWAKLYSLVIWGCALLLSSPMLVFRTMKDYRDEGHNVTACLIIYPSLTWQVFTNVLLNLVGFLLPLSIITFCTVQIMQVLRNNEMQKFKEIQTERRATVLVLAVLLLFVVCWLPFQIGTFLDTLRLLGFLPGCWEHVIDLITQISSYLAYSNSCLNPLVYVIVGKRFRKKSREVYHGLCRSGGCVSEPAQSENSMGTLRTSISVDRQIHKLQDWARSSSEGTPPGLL
Text: The peptides according to the invention have, singly or in combination, a bradykinin-antagonistic action which can be tested in various models (see Handbook of Exp. Pharmacol. Vol. 25, Springer Verlag, 1970, pages 53-55), for example on the isolated rat uterus, on the guinea pig ileum or on the isolated guinea pig pulmonary artery.
(§1) To test the peptides according to the invention on the isolated pulmonary artery, guinea pigs (Dunkin Hartley) weighing 400-450 g are sacrificed by a blow to the back of the neck. The thorax is opened and the pulmonary artery is carefully dissected out. The surrounding tissue is cautiously removed and the pulmonary artery is cut open in a spiral at an angle of 45°. The strip of vessel 2.5 cm long and 3-4 mm wide is fixed in an organ bath which has a capacity of 10 ml and is filled with Ringer solution.
(§2) 95% O2 and 5% CO2 is bubbled through the solution, which is heated to 37° C. The pH is 7.4 and the preload on the strip of vessel is 1.0 g.
(§3) The isometric contraction changes are detected using a lever attachment and an HF modem (position sensor) from Hugo Sachs and are recorded on a potentiometric recorder (BEC, Goerz Metrawatt SE 460).
The experiment is started after equilibration for 1 hour. After the strips of vessel have reached their maximum sensitivity to 2×10^-7 mol/1 bradykinin--bradykinin leads to contraction of the strips of vessel--the peptides are left to act in doses of 5×10^-8 -1×10^-5 mol/l for 10 minutes each and, after renewed addition of bradykinin, the decrease in the effect of bradykinin is compared with the control.

[2] = target: T1, isolated guinea pig pulmonary artery; assay: duration of action (T50) on the isolated pulmonary artery after replacement of the peptide-containing buffer; assay type: cell-based; conditions: time until strips again reach maximum sensitivity to 2×10^-7 mol/l bradykinin after washout; measure of duration of action; found by calculation
Method: as §1, §2, §3
The experiment is started after equilibration for 1 hour. […]
For some selected compounds, the time until the strips of vessel have again reached their maximum sensitivity to 2×10^-7 mol/l bradykinin after replacement of the peptide-containing by a "simple" buffer was also determined in the experimental arrangement described above. […]

[3] = test system: carrageenan-induced edema of the rat paw; assay: carrageenan-induced edema of the rat paw, systemic administration; assay type: in vivo; conditions: 15 min before carrageenan, male Sprague-Dawley rats, mean and standard deviation
Method: Antiinflammatory effect after systemic administration: carrageenan-induced edema of the rat paw
The test chosen for the acute systemic antiinflammatory effect is the carrageenan-induced edema of the rat paw by the method described by Winter C. A. et al., Proc. Soc. Exp. Biol. (N.Y.), 111, 544 (1962). Male Sprague-Dawley rats weighing about 170 g in groups of 5 animals receive the substances to be tested subcutaneously dissolved in distilled water (1 ml/kg bodyweight). 15 min later, after measurement of the initial volume of the paw, 0.1 ml of 0.5% strength carrageenan solution is injected under ether anesthesia into the left rear paw. The increase in volume of the swelling is measured 3 and 6 h later, Controls receive only the vehicle. The paw volume is reported in ml (mean and standard deviation).

Row | Substance | IC50 [1] [nM] | T50 (pulmonary artery) [2] [min] | Increase in paw volume after 3 h ([3]; 0.1 mg/kg subcutaneously) [mL] | Increase in paw volume after 6 h ([3]; 0.1 mg/kg subcutaneously) [mL] | Increase in paw volume after 3 h ([3]; 1.0 mg/kg subcutaneously) [mL] | Increase in paw volume after 6 h ([3]; 1.0 mg/kg subcutaneously) [mL]
1 | Fmoc-Aoc-D-Arg-Arg-Pro-Hyp-Gly-Thia-Ser-D-Tic-Oic-Arg-OH [Example 2] | 8.5 | 253.3 | 0.13 ± 0.04 | 0.29 ± 0.08 | 0.19 ± 0.06 | 0.27 ± 0.06
2 | Fmoc-(4-aminocyclohexylcarbonyl)-D-Arg-Arg-Pro-Hyp-Gly-Thi-Ser-D-Tic-Oic-Arg-OH [Example 15] | 25 |  |  |  |  | 
3 | Fmoc-D-Aoc-Arg -Arg-Pro-Hyp-Gly-Thi-Ser-D-Tic-Oic-Arg-OH [Example 7] | 22 |  |  |  |  | 
